Test results reported in patent publication US20210134398A1, “Combinatorial Chemistry Computational System and Enhanced Selection Method” (Southern Methodist University, priority 2019, published 2021).
Entries after “also recorded” stand apart in the source; their conditions may differ.

Tests used:
[1] = system: P-gp overexpressing prostate cancer cell line, DU145TXR; test: MTT cell viability assay, resensitization to paclitaxel; type: cell-based, human; conditions: for Fold vs PTX + 29: vs paclitaxel + parental compound 29; for Fold vs PTX (fold increased sensitivity): vs paclitaxel alone; for Resensitization of DU145TXR to paclitaxel / MDR reversal (in words): 3 to 10 μM inhibitor
Description: The Group 1 ChemGen/docking routine produced variants of P-gp inhibitor 29 resensitize a multidrug resistant, P-gp overexpressing prostate cancer cell line to paclitaxel. The mitochondrial reduction potential of cells is often used as an indicator for cell viability using MTT assays^4. Using these assays it was observed that the five Group 1 derivatives of 29 predicted through the ChemGen/docking routine and synthesized here, 216, 227, 231, 541 and 551, re-sensitized the P-gp overexpressing prostate cancer cell line, DU145TXR^33, to the chemotherapeutic, paclitaxel (FIG. 12, showing results of assays at concentrations of 3 μM, 5 μM, 7 μM, and 10 μM).
Cytotoxicity of the chemotherapeutic, paclitaxel (PTX) to P-gp overexpressing prostate cancer cells, DU145TXR, was determined in the absence and presence of the ChemGen designed 29-variants, 216, 227, 231, 541 and 551. For each experimental compound IC50 values of PTX alone or in the presence of inhibitors, fold improvement of PTX sensitivity in the presence of inhibitor, and fold improvement of PTX sensitivity by variants compared to parental compound 29 are given.
Effects of Group 2 variants on the paclitaxel sensitivity of P-glycoprotein overexpressing prostate cancer cells, DU145TXR. MTT assays were again used to assess the efficacy of the new structural 29-variants on sensitizing the chemotherapy-resistant prostate cancer cell line, DU145TXR, to paclitaxel, at concentrations of 3 μM, 5 μM, 7 μM, and 10 μM as shown in FIG. 15 and Table 4.
MTT cell viability assay. Cells were trypsinized from monolayers and seeded with 3000 cells in 150 μL of complete medium in a 96 well plate. After 24 hours, cells were treated for 48 hours with paclitaxel (Acros Organics, NJ) and/or P-gp inhibitory compounds dissolved in DMSO, or DMSO controls. All additions were diluted into complete medium. After 48 hours of treatment, MTT assays were performed as described^41 using 5 mg/mL of MTT (Acros Organics, NJ) solution prepared in PBS (137 mM NaCl, 2.7 mM KCl, 10 mM Na2HPO4, 1.8 mM KH2PO4, pH 7.4). After 4 hours of incubation with MTT, the media was removed and the formazan crystals were dissolved in 100 μL of DMSO. The absorbance at 570 nm was then measured using a BioTek Cytation 5 imaging multi-mode reader (Bio-Tek, Winooski, Vt.). Percent viability was calculated using DMSO treated cells as representative for 100% viability, according to Equation 1. Background absorbance was determined using MTT and complete medium without cells and subtracted from all the test values. Equation 1:
The results were plotted as the mean with standard deviation (SD) of eight replicates per concentration from at least two independent experiments with n=8. The graphical representations and IC50 values were determined using four parameter variable slope non-linear regression, using the following equation: Y=bottom+(top-bottom)/(1+10^((log IC50−X)*Hill Slope) (GraphPad Prism™, La Jolla Calif., USA, Version 6.05). The reported “fold sensitization” was calculated as follows, per Equation 2: […]

[2] = target: T1, cysteineless mouse P-glycoprotein (Mus musculus, UniProt P21447, C1070A/C1121A/C1223A/C133A/C427A/C638A/C669A/C713A/C952A); test: SL-ATP (spin-labeled ATP analog) binding titration by ESR; conditions: for Maximum ATP binding: in the presence of the compound, ± standard deviation
T1 construct: made in house; host or cells: Pichia pastoris
T1 sequence (P21447 whole entry C133A/C427A/C638A/C669A/C713A/C952A/C1070A/C1121A/C1223A): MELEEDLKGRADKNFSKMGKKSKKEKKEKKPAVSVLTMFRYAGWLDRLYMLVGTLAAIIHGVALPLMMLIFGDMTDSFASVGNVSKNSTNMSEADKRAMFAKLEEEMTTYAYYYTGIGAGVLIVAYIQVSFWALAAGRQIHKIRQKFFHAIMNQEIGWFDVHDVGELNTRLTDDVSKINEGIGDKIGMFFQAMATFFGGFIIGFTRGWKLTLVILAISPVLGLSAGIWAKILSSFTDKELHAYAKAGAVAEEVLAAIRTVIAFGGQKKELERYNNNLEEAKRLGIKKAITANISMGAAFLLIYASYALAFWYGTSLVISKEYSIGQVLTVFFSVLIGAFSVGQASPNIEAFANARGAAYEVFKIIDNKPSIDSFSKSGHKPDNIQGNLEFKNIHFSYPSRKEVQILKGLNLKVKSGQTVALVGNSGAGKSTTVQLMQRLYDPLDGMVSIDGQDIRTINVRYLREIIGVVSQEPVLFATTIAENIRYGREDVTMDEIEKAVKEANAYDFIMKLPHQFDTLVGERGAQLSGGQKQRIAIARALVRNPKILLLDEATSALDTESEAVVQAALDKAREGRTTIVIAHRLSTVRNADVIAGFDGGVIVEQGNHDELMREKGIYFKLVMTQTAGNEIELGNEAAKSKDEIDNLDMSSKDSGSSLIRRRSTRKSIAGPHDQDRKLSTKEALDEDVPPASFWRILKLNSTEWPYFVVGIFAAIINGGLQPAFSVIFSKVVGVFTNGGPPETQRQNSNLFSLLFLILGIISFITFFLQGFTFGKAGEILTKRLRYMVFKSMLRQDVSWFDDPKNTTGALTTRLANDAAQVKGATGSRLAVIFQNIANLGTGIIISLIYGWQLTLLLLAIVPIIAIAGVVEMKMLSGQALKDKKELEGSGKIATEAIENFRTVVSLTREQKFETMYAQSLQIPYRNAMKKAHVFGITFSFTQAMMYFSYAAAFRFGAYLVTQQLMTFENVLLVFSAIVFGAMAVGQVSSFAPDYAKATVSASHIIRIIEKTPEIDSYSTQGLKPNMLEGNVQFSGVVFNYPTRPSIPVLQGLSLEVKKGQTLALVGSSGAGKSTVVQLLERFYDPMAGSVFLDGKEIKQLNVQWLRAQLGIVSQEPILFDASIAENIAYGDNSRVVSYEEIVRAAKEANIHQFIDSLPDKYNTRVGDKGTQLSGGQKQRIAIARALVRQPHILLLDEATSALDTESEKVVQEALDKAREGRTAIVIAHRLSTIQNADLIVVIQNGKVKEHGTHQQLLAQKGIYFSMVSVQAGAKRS
Protocol: Effects of 29 variants on binding of an ATP-analog to purified P-glycoprotein. ATP binding in the presence of the 29 variants was assessed in titration assays using a spin-labeled analog of ATP, 2′,3′-SL-ATP (2′,3′-(2,2,5,5,-tetramethyl-3-pyrroline-1-oxyl-3-carboxylic acid ester) ATP; (2′,3′ indicates a rapid equilibrium of the ester bond between the C2′ and C3′ of the ribose moiety))^48-50, and electron spin resonance spectroscopy as described in^26. Due to the lower stability of the human P-glycoprotein in the extended times needed for these experiments, the cysteineless mouse protein was used here. The goal was to assess whether binding of the 29 variants to P-gp affected nucleotide binding to the protein.
ESR Measurements. ESR measurements were as described in^26. The amount of protein-bound spin-labeled (SL) adenine nucleotide was determined as the difference between the known total concentration of SL-ATP (2′,3′-(2,2,5,5,-tetramethyl-3-pyrroline-1-oxyl-3-carboxylic acid ester) —ATP^48) added and the free spin-labeled nucleotide (SL-ANP) observed in the experiment. Hyperbolic curve fitting of the results was performed using GraphPad Prism 7 to determine maximum binding and apparent affinity for the spin-labeled nucleotide. The equation used for the fitting the curves was […], where P1 corresponds to the maximum binding of SL-ANP (moles of SL-ANP bound per mole P-gp), and P2 equals the apparent dissociation constant for SL-ANP. To quantify the amount of free SL-ANP, standard curves were established where the signal amplitude of the high field signal of the ESR spectra of free SL-ANP in the absence of protein was correlated to the concentration of SL-ANP added. All ESR measurements were performed using a Bruker EMX 6/1 ESR spectrophotometer operating in X-band mode and equipped with a high sensitivity cavity. Spectra were acquired at a microwave frequency of 9.33 GHz, microwave power of 12.63 mW, 100 kHz modulation frequency and a resolution of 1024 points. The centerfield of the scan was at 3325 G and an area of 100 G was scanned. The peak to peak modulation amplitude was 1G and the time constant was set to 10.240 ms. The conversion time was 163.84 ms, resulting in a total time sweep of 167.772 s. The signal gain was adjusted for the SL-ATP concentrations in the different experiments.

Compound	Effect on SL-ANP binding [2]	Maximum ATP binding [2] [mol SL-ANP bound/mol P-gp]	Fold vs PTX + 29 ([1]; 5 μM inhibitor)	Fold vs PTX (fold increased sensitivity) ([1]; 5 μM inhibitor)	Fold vs PTX + 29 ([1]; 7 μM inhibitor)	Fold vs PTX (fold increased sensitivity) ([1]; 7 μM inhibitor)	Fold vs PTX + 29 ([1]; 10 μM inhibitor) [fold]	Fold vs PTX (fold increased sensitivity) ([1]; 10 μM inhibitor) [fold]	Fold vs PTX (fold increased sensitivity) ([1]; 3 μM inhibitor) [fold]	Fold vs PTX + 29 ([1]; 3 μM inhibitor)	other results
2-{[2-(9H-flouoren-2-yl)-2-oxoethyl]}-N-[1-phenyl-3-(2,4,5-trimethylphenyl0-1H-pyrazol-5-yl]acetamide [29-216]	no	1.7 ± 0.1	1.3 fold	14 fold	1 fold	34 fold	0.4	37	–	–	–
Cc1cc(C)c(-c2cc(NC(=O)CSCC(=O)Nc3ccc4ccccc4c3)n(-c3ccccc3)n2)cc1C [29-231, 2-({[(naphthalen-2-yl)carbamoyl]methyl}sulfanyl)-N-[1-phenyl-3-(2,4,5-trimethylphenyl)-1H-pyrazol-5-yl]acetamide]	marginally	1.8 ± 0.1	4.2 fold	46 fold	8.4 fold	303 fold	11	1060	14	–	Fold vs PTX + 29 ([1]; 3 μM inhibitor, listed as 231): 4.1 fold; Resensitization of DU145TXR to paclitaxel / MDR reversal (in words) ([1]; listed as 231): re-sensitized; also recorded: more effective than 29 at all concentrations tested
Cc1cc(C)c(-c2cc(NC(=O)CSCC(=O)Nc3ccc4ncsc4c3)n(-c3ccccc3)n2)cc1C [29-255, 2-({[(1,3-benzothiazol-6-yl)carbamoyl]methyl}sulfanyl)-N-[1-phenyl-3-(2,4,5 trimethylphenyl)-1H-pyrazol-5-yl]acetamide]	no	1.9 ± 0.1	–	–	–	about a thousand-fold	–	–	–	comparable to 238 at 3 μM	Resensitization of DU145TXR to paclitaxel / MDR reversal (in words) ([1]; listed as 255): increased paclitaxel toxicities to the greatest extents; also recorded: vastly outperformed compounds 278, 280 and 286; also recorded: reversed MDR
Cc1cc(C)c(-c2cc(NC(=O)CSCC(=O)NC(c3ccccc3)c3ccccc3)n(-c3ccccc3)n2)cc1C [29-280, N-(diphenylmethyl)-2-[({[1-phenyl-3-(2,4,5-trimethylphenyl)-1H-pyrazol-5-yl]carbamoyl)methyl}sulfanyl]acetamide]	marginally	1.6 ± 0.1	–	–	–	–	–	–	–	–	–
Cc1cc(C)c(-c2cc(NC(=O)CSCC(=O)NCc3ccc(F)cc3)n(-c3ccccc3)n2)cc1C [29-286]	no	1.9 ± 0.1	–	–	–	–	–	–	–	–	Resensitization of DU145TXR to paclitaxel / MDR reversal (in words) ([1]; listed as 286): little effect
Cc1cc(C)c(-c2cc(NC(=O)CSc3nnc(C4CC4)[nH]3)n(-c3ccccc3)n2)cc1C [compound 29, reference compound]	–	–	1 fold	11 fold	1 fold	36 fold	1	101	3	1 fold	–

Further lines, with some results ahead:

Effect on SL-ANP binding [2]	Maximum ATP binding [2] [mol SL-ANP bound/mol P-gp]	Compound	Fold vs PTX + 29 ([1]; 5 μM inhibitor)	Fold vs PTX (fold increased sensitivity) ([1]; 5 μM inhibitor)	Fold vs PTX + 29 ([1]; 7 μM inhibitor)	Fold vs PTX (fold increased sensitivity) ([1]; 7 μM inhibitor)	Fold vs PTX + 29 ([1]; 10 μM inhibitor) [fold]	Fold vs PTX (fold increased sensitivity) ([1]; 10 μM inhibitor) [fold]	Fold vs PTX (fold increased sensitivity) ([1]; 3 μM inhibitor) [fold]	Fold vs PTX + 29 ([1]; 3 μM inhibitor)	other results
no	1.8 ± 0.1	Cc1cc(C)c(-c2cc(NC(=O)CSCC(=O)N3c4ccccc4CCc4ccccc43)n(-c3ccccc3)n2)cc1C [29-227, 2-[(2-{2-azatricyclo[9.4.0.0]pentadeca-1(11),3(8},4,6,12,14-hexaen-2-yl)-2-oxoethyl)sulfanyl]-N-[1-phenyl-3-(2,4,5-trimethylphenyl)-1H-pyrazol-5-yl]acetamide]	3.7 fold	41 fold	10 fold	353 fold	5	530	13	–	Fold vs PTX + 29 ([1]; 3 μM inhibitor, listed as 227): 3.8 fold; Resensitization of DU145TXR to paclitaxel / MDR reversal (in words) ([1]; listed as 227): re-sensitized; also recorded: more effective than 29 at all concentrations tested
yes	–	COc1cc(NC(=O)CSCC(=O)Nc2cc(-c3cc(C)c(C)cc3C)nn2-c2ccccc2)cc(OC)c1OC [29-238, N-[1-phenyl-3-(2,4,5-trimethylphenyl)-1H-pyrazol-5-yl]-2-({[(3,4,5-trimethoxyphenyl)carbamoyl]methyl}sulfanyl)acetamide]	around 100 fold	about a thousand-fold	around 100 fold	–	300	–	–	3.4 fold	Resensitization of DU145TXR to paclitaxel / MDR reversal (in words) ([1]; listed as 238): increased paclitaxel toxicities to the greatest extents; also recorded: vastly outperformed compounds 278, 280 and 286; also recorded: strongest reversal of MDR; Maximum ATP binding ([2]; listed as 238): about 1 mol SL-ANP bound/mol P-gp; Maximum ATP binding ([2]; listed as SMU29-238): 1.2 ± 0.1 mol SL-ANP bound/mol P-gp
yes	–	Cc1cc(C)c(-c2cc(NC(=O)CSCC(=O)NC34CC5CC(CC(C5)C3)C4)n(-c3ccccc3)n2)cc1C [29-278, 2-({[(adamantan-1-yl)carbamoyl]methyl}sulfanyl)-N-[1-phenyl-3-(2,4,5-trimethylphenyl)-1H-pyrazol-5-yl]acetamide]	–	–	–	–	–	–	–	–	Resensitization of DU145TXR to paclitaxel / MDR reversal (in words) ([1]; listed as 278): affected MDR relatively weakly; Maximum ATP binding ([2]; listed as 278): about 1 mol SL-ANP bound/mol P-gp; Maximum ATP binding ([2]; listed as SMU29-278): 1.3 ± 0.1 mol SL-ANP bound/mol P-gp
